Experimental data: ChEMBL document CHEMBL3832031, “DailyMed|setid=d3c528d2-429d-4f37-9ebf-eee8b9fd3050 | TRENTINOIN - tretinoin gel| Oceanside Pharmaceuticals”

Columns and labels:
[1] = Bioavailability of Tretinoin following multiple topical administration of 0.1 % tretinoin gel to 44 male and female subjects.; format: ADME, organism-based; conditions: both, human, in vivo, topical or ocular, dosed compound id 14, dosed compound name TRETINOIN, gender male and female, regimen Multiple dose, study dosing duration 28 days, tissue Plasma
[2] = Bioavailability of Tretinoin following single topical administration of 0.1 % tretinoin gel to 44 male and female subjects.; format: ADME, organism-based; conditions: both, human, in vivo, topical or ocular, dosed compound id 14, dosed compound name TRETINOIN, gender male and female, regimen Single dose, study dosing duration 28 days, tissue Plasma

CC1=C(/C=C/C(C)=C/C=C/C(C)=C/C(=O)O)C(C)(C)CCC1 [TRETINOIN]
bioavailability [1]: 1.41%
bioavailability [2]: 0.82%
